Tests used:
[1] = target: Epidermal growth factor receptor (Homo sapiens, UniProt P00533); assay: Inhibition of GST-tagged human recombinant EGFR (668 to1210 residues) expressed in baculovirus using Fluorescein-Poly GT as substrate at 100 nM
[2] = tested on: HUVEC; assay: Antiangiogenic activity in HUVEC after 72 hrs by MTT assay; assay type: functional, cell-based; settings: Homo sapiens
[3] = target: Fibroblast growth factor receptor 2 (Homo sapiens) (UniProt P21802); assay: Inhibition of His-tagged human recombinant FGFR2 (403 to 822 residues) expressed in baculovirus using Fluorescein-Poly GT as substrate at 100 nM
[4] = target: Serine/threonine-protein kinase B-raf (Homo sapiens) (UniProt P15056); assay: Inhibition of full length GST-tagged human recombinant BRAF expressed in baculovirus using Fluorescein-MAP2K1 as substrate at 100 nM
[5] = tested on: HepG2; assay: Antiproliferative activity against human HepG2 cells after 72 hrs by MTT assay; assay type: functional, cell-based; settings: HepG2, 72 h
[6] = target: Proto-oncogene tyrosine-protein kinase Src (Homo sapiens, UniProt P12931); assay: Inhibition of full length His-tagged human recombinant cSRC expressed in baculovirus using Fluorescein-Poly GT as substrate at 100 nM
[7] = target: Platelet-derived growth factor receptor alpha (Homo sapiens, UniProt P16234); assay: Inhibition of full length GST-tagged human recombinant PDGFRalpha expressed in baculovirus using Fluorescein-Poly GT as substrate at 100 nM
[8] = target: Vascular endothelial growth factor receptor 2 (Homo sapiens) (UniProt P35968); assay: Inhibition of full length His-tagged human recombinant VEGFR2 expressed in baculovirus using Fluorescein-Poly GT as substrate at 100 nM
Vascular endothelial growth factor receptor 2 (Homo sapiens), sequence (P35968 whole entry): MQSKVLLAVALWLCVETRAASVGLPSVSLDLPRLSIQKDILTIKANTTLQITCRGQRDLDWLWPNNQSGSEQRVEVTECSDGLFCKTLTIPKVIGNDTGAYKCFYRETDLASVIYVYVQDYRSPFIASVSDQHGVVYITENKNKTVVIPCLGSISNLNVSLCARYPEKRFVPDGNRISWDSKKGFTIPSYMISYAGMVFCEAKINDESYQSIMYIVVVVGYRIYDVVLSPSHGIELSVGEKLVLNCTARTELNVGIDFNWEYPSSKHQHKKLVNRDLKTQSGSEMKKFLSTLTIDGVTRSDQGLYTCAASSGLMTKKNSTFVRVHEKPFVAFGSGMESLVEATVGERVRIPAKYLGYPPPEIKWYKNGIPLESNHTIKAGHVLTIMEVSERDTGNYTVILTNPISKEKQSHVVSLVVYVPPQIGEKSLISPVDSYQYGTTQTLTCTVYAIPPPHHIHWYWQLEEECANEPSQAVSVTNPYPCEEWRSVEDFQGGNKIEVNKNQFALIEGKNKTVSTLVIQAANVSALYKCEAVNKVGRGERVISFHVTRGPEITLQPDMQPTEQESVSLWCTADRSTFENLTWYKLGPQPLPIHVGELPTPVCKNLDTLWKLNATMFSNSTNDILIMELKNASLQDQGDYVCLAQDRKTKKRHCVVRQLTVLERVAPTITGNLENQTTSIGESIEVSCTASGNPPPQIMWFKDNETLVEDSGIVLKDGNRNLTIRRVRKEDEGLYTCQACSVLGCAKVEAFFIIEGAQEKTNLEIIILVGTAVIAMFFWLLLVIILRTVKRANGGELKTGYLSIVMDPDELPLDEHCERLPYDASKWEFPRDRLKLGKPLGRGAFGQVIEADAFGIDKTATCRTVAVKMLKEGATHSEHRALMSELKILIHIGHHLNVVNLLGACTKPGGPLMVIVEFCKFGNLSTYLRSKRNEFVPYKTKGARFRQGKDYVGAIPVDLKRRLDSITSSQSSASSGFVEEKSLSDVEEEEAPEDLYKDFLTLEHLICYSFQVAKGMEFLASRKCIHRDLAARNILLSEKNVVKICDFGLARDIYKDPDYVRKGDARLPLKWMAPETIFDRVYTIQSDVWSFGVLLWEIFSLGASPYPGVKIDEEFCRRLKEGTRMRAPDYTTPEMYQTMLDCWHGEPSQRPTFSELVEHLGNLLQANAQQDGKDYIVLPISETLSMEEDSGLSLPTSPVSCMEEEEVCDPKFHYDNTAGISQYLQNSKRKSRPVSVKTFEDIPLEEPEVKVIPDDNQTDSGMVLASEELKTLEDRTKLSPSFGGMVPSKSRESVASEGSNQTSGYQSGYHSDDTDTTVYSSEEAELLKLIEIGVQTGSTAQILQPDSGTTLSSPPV

Fibroblast growth factor receptor 2 (Homo sapiens), sequence (P21802 22-821 limits assumed): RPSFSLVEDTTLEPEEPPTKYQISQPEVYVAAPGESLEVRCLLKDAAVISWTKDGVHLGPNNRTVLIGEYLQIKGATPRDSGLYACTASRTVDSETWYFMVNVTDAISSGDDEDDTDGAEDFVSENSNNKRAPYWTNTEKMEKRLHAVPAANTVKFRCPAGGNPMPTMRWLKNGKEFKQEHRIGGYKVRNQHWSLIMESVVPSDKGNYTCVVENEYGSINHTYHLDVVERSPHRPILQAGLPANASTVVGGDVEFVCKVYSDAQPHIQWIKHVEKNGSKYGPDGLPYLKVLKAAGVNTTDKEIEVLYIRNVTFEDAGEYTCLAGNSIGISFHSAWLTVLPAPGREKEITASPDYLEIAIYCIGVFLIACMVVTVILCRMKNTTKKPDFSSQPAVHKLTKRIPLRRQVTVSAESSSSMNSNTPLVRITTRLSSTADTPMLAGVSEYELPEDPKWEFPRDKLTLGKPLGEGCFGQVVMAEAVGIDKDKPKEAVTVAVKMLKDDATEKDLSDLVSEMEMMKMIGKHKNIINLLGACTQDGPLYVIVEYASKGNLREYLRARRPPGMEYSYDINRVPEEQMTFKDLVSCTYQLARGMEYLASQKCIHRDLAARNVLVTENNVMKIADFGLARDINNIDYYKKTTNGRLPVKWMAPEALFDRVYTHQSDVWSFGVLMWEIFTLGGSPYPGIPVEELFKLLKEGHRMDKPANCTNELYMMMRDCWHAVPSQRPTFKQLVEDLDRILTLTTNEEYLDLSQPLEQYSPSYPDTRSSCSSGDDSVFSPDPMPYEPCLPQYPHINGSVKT
Proto-oncogene tyrosine-protein kinase Src, sequence (P12931 2-536 limits assumed): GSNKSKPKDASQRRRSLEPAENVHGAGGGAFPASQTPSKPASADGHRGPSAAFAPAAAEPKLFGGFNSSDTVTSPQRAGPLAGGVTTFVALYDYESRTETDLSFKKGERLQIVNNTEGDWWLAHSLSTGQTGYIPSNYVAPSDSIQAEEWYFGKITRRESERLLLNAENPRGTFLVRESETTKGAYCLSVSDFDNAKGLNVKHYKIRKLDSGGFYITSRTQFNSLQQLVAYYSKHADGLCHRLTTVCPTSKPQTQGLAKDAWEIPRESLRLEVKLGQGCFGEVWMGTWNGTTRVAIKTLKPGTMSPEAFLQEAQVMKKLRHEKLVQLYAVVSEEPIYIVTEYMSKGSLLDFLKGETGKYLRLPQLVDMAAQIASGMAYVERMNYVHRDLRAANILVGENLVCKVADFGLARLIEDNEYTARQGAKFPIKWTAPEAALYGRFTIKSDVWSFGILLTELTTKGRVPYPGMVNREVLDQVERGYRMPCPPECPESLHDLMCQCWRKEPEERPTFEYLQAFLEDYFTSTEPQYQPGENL
Epidermal growth factor receptor, sequence (P00533 whole entry, the tested form may be a part): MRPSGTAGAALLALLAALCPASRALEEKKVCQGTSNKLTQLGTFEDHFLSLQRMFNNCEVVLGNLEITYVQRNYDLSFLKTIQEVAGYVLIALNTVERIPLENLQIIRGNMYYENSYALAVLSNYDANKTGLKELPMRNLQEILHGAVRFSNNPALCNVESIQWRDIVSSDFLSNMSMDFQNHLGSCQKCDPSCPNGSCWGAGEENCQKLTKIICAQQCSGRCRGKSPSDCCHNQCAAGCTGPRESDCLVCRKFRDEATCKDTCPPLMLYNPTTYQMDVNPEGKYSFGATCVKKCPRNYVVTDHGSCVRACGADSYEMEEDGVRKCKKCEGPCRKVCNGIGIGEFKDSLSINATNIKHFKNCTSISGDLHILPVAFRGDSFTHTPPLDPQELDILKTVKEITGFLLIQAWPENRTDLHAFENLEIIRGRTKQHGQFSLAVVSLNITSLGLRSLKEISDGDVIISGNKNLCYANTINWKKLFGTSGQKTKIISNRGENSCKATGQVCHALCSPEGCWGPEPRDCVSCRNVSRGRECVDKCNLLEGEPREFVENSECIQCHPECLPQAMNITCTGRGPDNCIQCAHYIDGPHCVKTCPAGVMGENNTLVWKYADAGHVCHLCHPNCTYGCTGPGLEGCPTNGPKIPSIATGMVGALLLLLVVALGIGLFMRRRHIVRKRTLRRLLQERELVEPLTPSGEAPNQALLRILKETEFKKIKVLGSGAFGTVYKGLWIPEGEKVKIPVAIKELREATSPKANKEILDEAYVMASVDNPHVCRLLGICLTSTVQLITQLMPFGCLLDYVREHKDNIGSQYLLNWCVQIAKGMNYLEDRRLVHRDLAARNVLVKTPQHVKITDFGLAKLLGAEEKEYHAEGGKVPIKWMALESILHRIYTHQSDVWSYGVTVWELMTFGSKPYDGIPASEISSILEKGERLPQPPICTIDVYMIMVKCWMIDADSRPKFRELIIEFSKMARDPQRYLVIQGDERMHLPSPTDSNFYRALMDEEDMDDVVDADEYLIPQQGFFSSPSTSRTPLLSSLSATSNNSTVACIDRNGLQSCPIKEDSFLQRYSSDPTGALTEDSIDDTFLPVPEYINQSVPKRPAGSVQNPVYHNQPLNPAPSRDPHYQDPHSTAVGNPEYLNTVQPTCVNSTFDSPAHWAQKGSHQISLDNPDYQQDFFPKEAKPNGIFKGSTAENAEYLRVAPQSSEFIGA
Platelet-derived growth factor receptor alpha, sequence (P16234 whole entry): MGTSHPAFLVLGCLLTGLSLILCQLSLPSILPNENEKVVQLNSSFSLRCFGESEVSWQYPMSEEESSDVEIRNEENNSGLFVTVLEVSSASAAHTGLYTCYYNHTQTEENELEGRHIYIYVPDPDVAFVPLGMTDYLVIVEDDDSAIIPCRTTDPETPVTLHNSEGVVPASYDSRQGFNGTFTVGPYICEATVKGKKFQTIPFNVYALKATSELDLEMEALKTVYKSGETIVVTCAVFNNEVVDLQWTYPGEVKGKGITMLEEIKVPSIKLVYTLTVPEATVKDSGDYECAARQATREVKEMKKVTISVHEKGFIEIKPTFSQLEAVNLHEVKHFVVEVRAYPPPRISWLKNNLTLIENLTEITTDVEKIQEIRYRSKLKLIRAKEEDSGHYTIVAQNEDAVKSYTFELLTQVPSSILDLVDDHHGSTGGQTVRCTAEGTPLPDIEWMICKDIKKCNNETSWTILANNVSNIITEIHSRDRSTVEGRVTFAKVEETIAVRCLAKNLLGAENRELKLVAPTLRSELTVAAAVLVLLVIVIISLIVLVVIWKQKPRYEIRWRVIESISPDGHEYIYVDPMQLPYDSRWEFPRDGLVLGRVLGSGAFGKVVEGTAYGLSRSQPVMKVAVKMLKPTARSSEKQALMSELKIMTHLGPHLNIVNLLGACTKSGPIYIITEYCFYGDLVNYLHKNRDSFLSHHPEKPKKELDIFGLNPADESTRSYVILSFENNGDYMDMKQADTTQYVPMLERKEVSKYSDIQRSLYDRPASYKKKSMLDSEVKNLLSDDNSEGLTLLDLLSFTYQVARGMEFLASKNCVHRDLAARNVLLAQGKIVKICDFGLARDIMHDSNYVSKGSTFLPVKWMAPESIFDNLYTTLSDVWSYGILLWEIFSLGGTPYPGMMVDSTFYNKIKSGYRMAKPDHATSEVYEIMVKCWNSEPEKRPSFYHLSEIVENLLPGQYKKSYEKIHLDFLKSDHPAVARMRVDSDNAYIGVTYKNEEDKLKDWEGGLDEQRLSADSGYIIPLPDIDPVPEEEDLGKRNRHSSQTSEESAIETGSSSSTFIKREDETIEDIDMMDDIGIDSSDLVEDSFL

Structure (SMILES)	inhibition [1]	EC50 [2]	inhibition [3]	inhibition [4]	EC50 [5]	inhibition [6]	inhibition [7]	inhibition [8]
COC(=O)c1cc2cc(NCc3cc(NC(=O)c4cncc(C(F)(F)F)c4)ccc3C)cnc2[nH]1	78%	390 nM	13%	73%	963 nM	101%	93%	73%
COC(=O)c1cc2cc(NCc3cc(NC(=O)Cc4cccc(C(F)(F)F)c4)ccc3C)cnc2[nH]1	2%	–	6%	61%	–	58%	87%	29%
CC(=O)c1cc2cc(NCc3cc(NC(=O)c4cc(-n5cnc(C)c5)cc(C(F)(F)F)c4)ccc3C)cnc2[nH]1	43%	–	13%	55%	–	59%	24%	24%
COC(=O)c1cc2cc(NCc3cc(NC(=O)c4ccc(-c5csc(C)n5)cc4)ccc3C)cnc2[nH]1	66%	–	-1%	35%	–	72%	74%	13%
COC(=O)c1cc2cc(/C=C/c3cc(NC(=O)c4ccc(CN5CCN(C)CC5)cc4)ccc3C)cnc2[nH]1	38%	–	2%	24%	–	40%	88%	51%
COC(=O)c1cc2cc(NCc3cc(NC(=O)c4ccnc(C(F)(F)F)c4)ccc3C)cnc2[nH]1	32%	–	-2%	-7%	–	42%	42%	13%
COC(=O)c1cc2cc(NCc3cc(NC(=O)c4ccc(C(F)(F)F)nc4)ccc3C)cnc2[nH]1	81%	–	-7%	50%	–	39%	76%	0%
COC(=O)c1cc2cc(NCc3cc(NC(=O)c4ccc(Cl)c(C(F)(F)F)c4)ccc3C)cnc2[nH]1	64%	–	5%	11%	–	86%	71%	9%
Cc1cn(-c2cc(C(=O)Nc3ccc(C)c(CNc4cnc5[nH]c(C(=O)O)cc5c4)c3)cc(C(F)(F)F)c2)cn1	91%	–	49%	18%	–	69%	63%	58%
COC(=O)c1cc2cc(NCc3cc(NC(=O)Cc4ccccc4Br)ccc3C)cnc2[nH]1	-1%	–	8%	71%	–	65%	97%	41%
COC(=O)c1cc2cc(NCc3cc(NC(=O)c4cccc(C(F)(F)F)c4)ccc3C)cnc2[nH]1	63%	–	7%	39%	–	108%	68%	38%
CC(=O)c1cc2cc(NCc3cc(NC(=O)c4ccc(CN5CCN(C)CC5)cc4)ccc3C)cnc2[nH]1	99%	–	5%	35%	–	87%	96%	88%
COC(=O)c1cc2cc(CNc3cc(NC(=O)c4ccc(CN5CCN(C)CC5)cc4)ccc3C)cnc2[nH]1	63%	–	8%	17%	–	47%	88%	46%
COC(=O)c1cc2cc(NCc3cc(NC(=O)c4cccc(OC(F)(F)F)c4)ccc3C)cnc2[nH]1	39%	–	8%	29%	–	105%	66%	40%
COC(=O)c1cc2cc(COc3cc(NC(=O)c4ccc(CN5CCN(C)CC5)cc4)ccc3C)cnc2[nH]1	81%	–	14%	7%	–	58%	98%	67%
COC(=O)c1cc2cc(NCc3cc(NC(=O)c4ccc(C)c(C(F)(F)F)c4)ccc3C)cnc2[nH]1	64%	–	10%	16%	–	74%	47%	19%
COC(=O)c1cc2cc(/C=C/c3cc(NC(=O)c4ccc(CN5CCC(N(C)C)C5)c(C(F)(F)F)c4)ccc3C)cnc2[nH]1 (centres undefined)	59%	–	38%	33%	–	55%	68%	61%
